Laboratory results reported in publication PMC4800991 (Molecular pharmaceutics, 2015).
Values belong to the compound of their own block, whether it stands above or below them.

How the values were obtained:
Format in all cases: cell-based
[1] = biological target: T1, human thiamine transporter 2 (hTHTR-2) (Homo sapiens, UniProt Q9BZV2); assay: [3H]MPP+ uptake in HEK-hTHTR-2 cells with and without fedratinib
T1 sequence (Q9BZV2 1-496): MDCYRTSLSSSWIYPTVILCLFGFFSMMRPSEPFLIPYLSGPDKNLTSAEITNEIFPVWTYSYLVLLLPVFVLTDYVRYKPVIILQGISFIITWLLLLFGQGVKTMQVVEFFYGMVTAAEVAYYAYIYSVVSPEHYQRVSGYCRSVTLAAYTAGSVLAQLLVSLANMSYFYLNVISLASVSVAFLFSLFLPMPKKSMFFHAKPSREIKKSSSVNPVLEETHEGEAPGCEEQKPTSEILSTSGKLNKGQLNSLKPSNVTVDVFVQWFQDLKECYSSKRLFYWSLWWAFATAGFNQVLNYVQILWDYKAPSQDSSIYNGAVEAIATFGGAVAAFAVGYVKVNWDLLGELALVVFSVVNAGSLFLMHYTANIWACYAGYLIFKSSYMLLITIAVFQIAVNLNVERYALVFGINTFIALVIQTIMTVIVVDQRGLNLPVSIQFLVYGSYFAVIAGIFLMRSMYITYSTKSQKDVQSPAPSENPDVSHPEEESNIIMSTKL

[2] = biological target: T1, human thiamine transporter 2 (hTHTR-2); assay: saturable […]metformin uptake
[3] = biological target: T1, human thiamine transporter 2 (hTHTR-2); assay: inhibition of [3H]thiamine uptake in HEK-hTHTR-2 cells
[4] = biological target: T1, human thiamine transporter 2 (hTHTR-2); assay: inhibition of [3H]thiamine and […]metformin uptake in HEK-hTHTR-2 cells at […]
[5] = biological target: T1, human thiamine transporter 2 (hTHTR-2); assay: saturable [3H]thiamine uptake

Structure (SMILES): C[n+]1ccc(-c2ccccc2)cc1 [MPP+, 1-methyl-4-phenylpyridinium]
[3H]MPP+ uptake in HEK-hTHTR-2 cells with and without fedratinib [1]: 1-methyl-4-phenylpyridinium (MPP^+) and the histamine H2-receptor antagonist famotidine were substrates of hTHTR-2

Structure (SMILES): CN(C)C(=N)N=C(N)N [metformin, 1,1-dimethylbiguanide]
IC50 [2]: 680 ± 140 µM

IC50 [3]: 244 ± 28.4 µM
Structure (SMILES): [H]/N=C(/N)N/C(=N/[H])NCCc1ccccc1 [phenformin]

Structure (SMILES): Cc1ncc(C[n+]2cccc(CCO)c2C)c(N)n1 [pyrithiamine]
inhibition of [3H]thiamine and [14C]metformin uptake in HEK-hTHTR-2 cells at 200 [4]: antithiamine analogues (amprolium and pyrithiamine) and prescription drugs (chloroquine, verapamil, and famotidine) were shown to be inhibitors

Structure (SMILES): Cc1ncc(C[n+]2csc(CCO)c2C)c(N)n1 [thiamine]
IC50 [5]: 1.03 ± 0.12 µM
